Test results published in patent US8809631B2, “Screening method for selecting plants that show reduced wound-induced surface discolouration and plant and plant parts thus obtained” (Rijk Zwaan Zaadteelt en Zaadhandel B.V., priority 2007, dated 2014).
Entries after “also recorded” stand apart in the source; their conditions may differ.

How the values were obtained:
[1] = test system: lettuce leaf discs; experiment: leaf disc pinking assay (discs between wetted filter papers, 5° C., 7 days); assay type: cell-based; settings: for effect on pink discolouration (formation of the pink dye): applied during the reaction; for effect on pink discolouration (formation of the pink dye) / concentration at which the pink discolouration was completely inhibited: lettuce leaf discs; for effect on output signal of the screen (brown or pink discolouration of the wound surface): FIG. 1 legend; for concentration at which the pink discolouration was completely inhibited: applied during the assay, 5° C., 7 days
Method: One embodiment of this invention is based on the surprising finding that when discs from leaves, in particular lettuce leaves, are taken and incubated between wetted filter papers at 5° C., after approximately 4 days the formation of a pink dye at the edges of the leaf discs becomes apparent. Suitable filter paper is filter paper type 1450 CV, Ref no. 10 313 281 from Schleier & Schuell, Microscience GmbH, Dassel, Germany. Upon further incubation, the signal intensifies and after approximately one week the maximum intensity has been reached. The formation of the pink dye occurs specifically at wound surfaces.
A phenotypic assay was developed in which leaf discolouration of lettuce induced by wounding can readily be assessed. This approach allows young plant screening for discolouration. Leaf discs of 5 mm diameter were taken from young or mature plants and placed between wetted filter papers in a tray. The system was incubated at 5° C. for 7 days. During the incubation a pink dye developed at the wound site of the leaf disc which became clearly visible as a printed circle on the filter paper (FIG. 2).

[2] = test system: lettuce PPO; experiment: L-DOPA leaf disc assay (conversion of L-DOPA into melanin); assay type: cell-based
Method: In addition to assays which address wound-induced discolouration in a broad sense, the method according to this invention also allows to screen in a more specific manner for mutants which have a reduced PPO activity. A phenotypic assay which is indicative for PPO activity was developed by using leaf discs which were incubated in the presence of 1.5 mM L-DOPA. As a black discolouration became apparent it can be concluded that L-DOPA can readily be converted by the polyphenol oxidising system at the wound surface of lettuce leaves into a black pigment called melanine. L-DOPA is converted by PPO into the reactive L-DOPA-quinone which is converted non-enzymatically via dopachrome and indol quinone into the black melanin.

[3] = treatment of formed dye with reducing agent after the wound response was completed; parameters: species or system lettuce; settings: added after the wound response was completed
Method: As L-cysteine is known to react with o-quinones, which are PPO products, by converting them back into colourless diphenols, the effects of L-cysteine on the pink dye coming from lettuce leaf discs was determined. In parallel the effect of L-cysteine was determined on the melanin formation upon incubation with L-DOPA. Leaf discs were taken and incubated according to the procedures described above. After the wound response was completed, a concentration series of L-cysteine was added to the leaf disc and the change in colour was monitored.

[4] = test system: field-grown lettuce plant; experiment: L-cysteine treatment of leaf discs from field-grown lettuce showing pinking; settings: 1 mM L-cysteine, approximately 30 minutes, room temperature
Method: This is typically observed when plants have been stressed, for example by conditions of severe water logging. The leaf was used to prepare leaf discs which were incubated immediately by 1 mM L-cysteine.

[5] = test system: lettuce outer leaf midrib tissue discs; experiment: midrib disc browning assay (wetted filter paper, 16° C.); assay type: cell-based; settings: 10 mM L-cysteine, approximately 72 hours
Method: Lettuce plants were grown to maturity and parts of outer leaves were taken by cutting discs from the rib tissue. The discs were incubated on wetted filter paper at 16° C. After approximately 72 hours, the wound surface had turned brown.

Structure (SMILES)	effect on pink discolouration (formation of the pink dye) [1]	effect on output signal of the screen (brown or pink discolouration of the wound surface) [1]	concentration at which the pink discolouration was completely inhibited [1] [%]	effect on the pink dye already formed by lettuce leaf discs [3]	further results
C[C@H](N)C(=O)O [L-alanine]	did not show any effect				
N[C@@H](CS)C(=O)O [L-cysteine]	strongly suppressed the formation of the pink dye	completely inhibited	≥ 0.001	converted into a colourless compound; also recorded: converting the pink dye back into a colourless compound	effect on black discolouration (melanin formation from L-DOPA) ([2]; applied simultaneously with L-DOPA (1 mM L-cysteine elsewhere in the source)): completely inhibited; also recorded: can be inhibited; concentration at which L-DOPA discolouration was completely inhibited ([2]; applied simultaneously with L-DOPA, lettuce leaf discs): ≥ 1 mM; effect on black melanin already formed in the L-DOPA assay [3]: not affected; effect on pink discolouration of field-grown lettuce leaf [4]: the pink discolouration is also eliminated; also recorded: the pink discolouration disappeared; effect on browning response of wound surface [5]: completely be inhibited; also recorded: the browning response was inhibited
CC(C)C[C@H](N)C(=O)O [L-leucine]	did not show any effect				
O=C1O[C@H]([C@@H](O)CO)C(O)=C1O [ascorbic acid]				convert the pink dye into a colourless compound	
O=CC=Cc1ccccc1 [cinnamaldehyde]	formation of the pink dye was inhibited	completely inhibited	≥ 0.01		
N[C@@H](CCC(=O)N[C@@H](CS)C(=O)NCC(=O)O)C(=O)O [glutathion]				convert the pink dye into a colourless compound	
